Measurements: US7375124B2, “Use of α-phenylthiocarboxylic and α-phenyloxycarboxylic acids with serum-glucose-lowering and serum-lipid-lowering activity” (Sigma-Tau Industrie Farmaceutiche Riunite S.p.A., priority 2002, dated 2008)
Like-named read-outs stand apart in the source and are kept apart here.

Tests used:
C57BL/KsJ db/db mouse [1] = conditions: in vivo
Description: (§1) Plasma levels of glucose, insulin, triglycerides, cholesterol, free fatty acids and urea were checked for a well-matched distribution of mice in the treatment groups.
(§2) At the start of treatment the body weights of the mice were checked and arrangements were made for monitoring water and feed consumption.
(§3) In the course of the experiment, serum glucose levels, oral glucose tolerance test (OGTT) findings, a number of lipid status parameters and weight gain were monitored.

C57BL/KsJ db/db mouse [2] = assay: Antidiabetic and serum-lipid-lowering activity in the db/db mouse (Experiments I and II); conditions: Experiment I; for Glucose: blood
Description: as §1, §2, §3

[3] = after 12 days' treatment, feeding state, approx. 15 hours after last treatment
[4] = after 18 days' treatment, fasting 18 hours, 6 hours after last treatment
[5] = after 25 days' treatment, postabsorption, 7.5 hours after last treatment
[6] = after 25 days' treatment, postabsorption, 7.5 hours after last treatment, mean ± S.E.
[7] = after 18 days' treatment, fasting 18 hours, 6 hours after last treatment, mean ± S.E.
[8] = db/db mice, oral twice daily, after 12 days' treatment, feeding state, approx. 15 hours after last treatment, mean ± S.E.

`COC(=O)C(C)(C)Sc1ccc(OCCc2ccc(Cl)cc2Cl)cc1` [Example 5, methyl 2-[4-(2-(2,4-dichlorophenyl)ethoxy)phenylthio]isobutyrate] gave a melting point of 73 to 74 °C.

For `COC(=O)C(C)(C)Sc1cccc(OCCn2c3ccccc3c3ccccc32)c1` [Example 6, methyl 2-[3-(2-(carbazol-9-yl)ethoxy)phenylthio]isobutyrate], the melting point was 101 to 103 °C.

Work on `COC(=O)C(C)(C)Sc1ccc(OCCn2c3ccccc3c3ccccc32)cc1` [Example 7, methyl 2-[4-(2-(carbazol-9-yl)ethoxy)phenylthio]isobutyrate] yielded a melting point of 72 to 74 °C.

`COC(=O)C(C)(C)Sc1ccc(OCCc2ccc3ccccc3c2)cc1` [Example 11, methyl 2-[4-[2-(2-naphthyl)ethoxy]phenylthio]isobutyrate] gave a melting point of 56 to 57 °C.

Compound `CC(C)(Sc1ccc(OCCc2ccc(Cl)cc2)cc1)C(=O)O` [Example 12, 2-[4-[2-(4-chlorophenyl)ethoxy]phenylthio]-2-methylpropanoic acid] has a melting point of 87 to 88 °C.

Work on `CC(C)(Sc1ccc(OCCc2ccc3ccccc3c2)cc1)C(=O)O` [Example 19, 2-[4-[2-(2-naphthyl)ethoxy]phenylthio]-2-methylpropanoic acid] yielded a melting point of 103 to 104 °C.

Work on `COC(=O)C(C)(C)Sc1cccc(OCc2ccc(-c3ccc([N+](=O)[O-])cc3)o2)c1` [Example 22, methyl 2-[3-[5-(4-nitrophenyl)furfuryloxy]phenylthio]isobutyrate] yielded a melting point of 81 to 82 °C.

`CC(C)(Sc1cccc(OCc2ccc(-c3ccc([N+](=O)[O-])cc3)o2)c1)C(=O)O` [Example 25, 2-methyl-2-[3-[5-(4-nitrophenyl)furfuryloxy]phenylthio]propanoic acid] gave a melting point of 137 to 138 °C.

For `CC(C)OC(=O)C(C)(C)Oc1ccc(C(=O)c2ccc(Cl)cc2)cc1` [Fenofibrate, fenofibrate, reference compound], the Final b.w. (C57BL/KsJ db/db mouse [1]) was 34.5 ± 1.0 g, the Initial b.w. (C57BL/KsJ db/db mouse [1]) was 33.3 ± 0.7 g and the “Variation % (final b.w.) vs control” value (C57BL/KsJ db/db mouse [1]) was “+22%”. The “Variation % (initial b.w.) vs control” value (C57BL/KsJ db/db mouse [1]) was “+5%”, the “Variation % (glucose) vs control” value (C57BL/KsJ db/db mouse [2]; [3]) was −4% and the “Variation % (glucose) vs control” value (C57BL/KsJ db/db mouse [2]; after 12 days' treatment, postabsorption, 8 hours after last treatment) was −1%. The “Variation % (AUC glucose at OGTT) vs control” value (C57BL/KsJ db/db mouse [2]; after 18 days' treatment, OGTT glucose 3 g/kg) was −12%, the “AUC glucose at OGTT” value (C57BL/KsJ db/db mouse [2]; after 18 days' treatment, OGTT glucose 3 g/kg, fasting 18 hours, 5 hours after last treatment, mean ± S.E.) was 45192 ± 1546 a.u and the “Variation % (glucose) vs control” value (C57BL/KsJ db/db mouse [2]; [4]) was “+12%”. For the same compound, the “Variation % (HDL-cholesterol) vs control” value (C57BL/KsJ db/db mouse [2]; after 25 days' treatment) was “+18%”, the “Variation % (triglycerides) vs control” value (C57BL/KsJ db/db mouse [2]; after 25 days' treatment) was −30% and the “Glucose (plasma)” value (C57BL/KsJ db/db mouse [2]; after 25 days' treatment, postabsorption (fasting 9 a.m. to 4.30 p.m.), 7.5 hours after last treatment, mean ± S.E.) was 553 ± 30 mg/dL. For the same compound, the “Variation % (fructosamine) vs control” value (C57BL/KsJ db/db mouse [2]; [5]) was “+15%”, the “Variation % (plasma glucose) vs control” value (C57BL/KsJ db/db mouse [2]; [5]) was “+21%” and the “Fructosamine (plasma)” value (C57BL/KsJ db/db mouse [2]; [6]) was 0.92 ± 0.02Δ mM. The “HDL-choles. (plasma)” value (C57BL/KsJ db/db mouse [2]; [6]) was 96.4 ± 4.2 mg/dL, the “Triglycerides (plasma)” value (C57BL/KsJ db/db mouse [2]; [6]) was 66.5 ± 3.5Δ mg/dl and the Glucose (C57BL/KsJ db/db mouse [2]; after 12 days' treatment, postabsorption (fasting 9 a.m. to 5 p.m.), 8 hours after last treatment, mean ± S.E.) was 409 ± 11 mg/dL. It also gave a Glucose (C57BL/KsJ db/db mouse [2]; [7]) of 384 ± 20 mg/dL and a Glucose (C57BL/KsJ db/db mouse [2]; [8]) of 466 ± 8 mg/dL.

For `CN(CCOc1ccc(CC2SC(=O)NC2=O)cc1)c1ccccn1` (centres unmarked) [Rosiglitazone, rosiglitazone, reference compound], the “Variation % (final b.w.) vs control” value (C57BL/KsJ db/db mouse [1]) was “+49%”, the “Variation % (initial b.w.) vs control” value (C57BL/KsJ db/db mouse [1]) was “+3%” and the “Variation % (glucose) vs control” value (C57BL/KsJ db/db mouse [2]; [3]) was −25%. For the same compound, the “Variation % (glucose) vs control” value (C57BL/KsJ db/db mouse [2]; [4]) was −35%, the “Variation % (HDL-cholesterol) vs control” value (C57BL/KsJ db/db mouse [2]; after 25 days' treatment) was −20% and the “Variation % (triglycerides) vs control” value (C57BL/KsJ db/db mouse [2]; after 25 days' treatment) was −54%. For the same compound, the Glucose (C57BL/KsJ db/db mouse [2]; [7]) was 225 ± 27▪ mg/dl, the Glucose (C57BL/KsJ db/db mouse [2]; [8]) was 365 ± 64 mg/dL and the Final b.w. (C57BL/KsJ db/db mouse [2]; final body weight after 25 days' treatment, postabsorption condition, mean ± S.E.) was 42.1 ± 2.5Δ g. It also gave an Initial b.w. (C57BL/KsJ db/db mouse [2]; initial body weight, postabsorption condition, mean ± S.E.) of 32.6 ± 1.4 g.
